Measured values published in US12202818B2, “Compounds and methods for CD73 modulation and indications therefor” (Opna Bio SA, priority 2020, dated 2025).
pIC50: −log10 of the molar value.

Tests used:
[1] = molecular target: T1, Human CD73 (amino acid residues 27-549) (Homo sapiens, UniProt P21589); experiment: CD73 enzymatic assay (luciferase-based indirect assay, CellTiter-Glo); type: biochemical; details: 0.4 nM CD73, 150 μM AMP, 1 hour at room temperature
T1 construct: Human CD73 (amino acid residues 27-549); His tag (N); made in house; host or cells: E. coli
T1 sequence (P21589 27-549): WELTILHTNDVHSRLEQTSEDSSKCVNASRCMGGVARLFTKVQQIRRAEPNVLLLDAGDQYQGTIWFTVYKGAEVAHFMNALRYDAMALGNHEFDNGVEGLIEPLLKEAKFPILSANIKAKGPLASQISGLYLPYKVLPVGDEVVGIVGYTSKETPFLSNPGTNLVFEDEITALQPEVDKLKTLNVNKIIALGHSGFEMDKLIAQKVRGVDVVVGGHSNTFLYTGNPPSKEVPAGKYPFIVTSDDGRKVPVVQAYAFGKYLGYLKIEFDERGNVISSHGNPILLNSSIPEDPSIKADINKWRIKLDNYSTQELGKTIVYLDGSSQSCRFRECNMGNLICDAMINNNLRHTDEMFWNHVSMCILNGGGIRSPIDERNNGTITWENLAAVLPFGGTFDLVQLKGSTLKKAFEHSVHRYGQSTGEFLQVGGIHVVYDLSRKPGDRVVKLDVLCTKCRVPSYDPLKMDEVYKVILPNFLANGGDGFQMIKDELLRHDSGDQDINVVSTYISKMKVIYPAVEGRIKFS
Procedure: CD73 enzymatic activity was measured in a luciferase-based indirect assay using CellTiter-Glo® system from Promega. The luciferase reaction in the presence of ATP is inhibited by AMP, a primary substrate of CD73. Addition of CD73 enzyme to the reaction converts AMP to adenosine, and release the inhibition, producing a luminescent signal. Inhibition of CD73 leads to the decrease of this luminescent signal.
Human CD73 (amino acid residues 27-549) with N-Terminal His tag was purified in E. coli. All the assay components were prepared in 50 mM HEPEs buffer (pH 7.4) with 0.01% Tween-20. The CD73 enzymatic assay was performed using 0.4 nM CD73 and 150 μM AMP. 9.5 μL of CD73 protein and 9.5 μL of AMP were added to the wells of a 384 well plate containing lpL of various concentrations of test compound or DMSO vehicle and incubated for 1 hour at room temperature. 16 wells containing CD73, AMP and 5% DMSO served as high control. 16 wells containing AMP and 5% DMSO served as low control. Enzymatic reaction was stopped and AMP level was measured indirectly by adding 5 μL of CellTiter-Glo® 2.0 reagent and 5 μL of ATP with a final concentration of 1 μM. Following incubation of the plate at room temperature for 30 minutes, luminescent signal was read on a Tecan plate reader. The percentage inhibition at individual concentrations relative to high and low controls was calculated. The data were analyzed by using nonlinear regression to generate IC50 values.

human CD73 = molecular target: T2, human CD73 (Homo sapiens, UniProt P21589); experiment: Inhibitor activity against CD73 in cell based assay (CD73 expressing CHO-K1 cells); details: CHO-K1 cells expressing human CD73, 150 μM AMP, 4 hours of incubation; read-out: CHO-K1 CELL_VARIANT: CD73 IC50
T2 construct: expressed in transfected cells
T2 sequence (P21589 27-549): T1 sequence (P21589 27-549)
Procedure: Determine Inhibitor Activity Against CD73 in Cell Based Assay
CD73 expressing CHO-K1 cell clones were generated upon stable transfection of a plasmid expressing human CD73 under the control of CMV promoter. Cells were selected in Ham's F-12K (Kaighn's) media supplemented with 10% fetal bovine serum and 1 mg/ml G418 at 37° C. in a humidified incubator supplied with 5% CO2. The assays were performed as follows. Cells were seeded in a 96 well plate in 50 μL of culture media at a density of 1×10^4 per well. Compound at a maximal concentration of 5 mM was serially diluted 1:3 in DMSO for a total of 8 point titration. A 2 μL aliquot of each dilution point was added to […] culture media and 25 µL was added to each well, providing 10 μM compound at the maximum concentration point. AMP was diluted in culture media and 25 μL was added to each well with a final concentration of 150 μM. 4 wells containing 0.2% DMSO treated cells and AMP served as high controls and 4 wells containing media only with 0.2% DMSO and AMP served as low controls. After 4 hours of incubation, 20 μL of the supernatant was transferred to a 384 well plate. AMP level in supernatant was measured indirectly by adding 5 μL of CellTiter-Glo® 2.0 reagent and 5 μL of ATP with a final concentration of 1 μM. Following incubation of plate at room temperature for 30 minutes, luminescent signal was read on a Tecan plate reader. The percentage inhibition at individual concentrations relative to high and low controls was calculated. The data were analyzed by using nonlinear regression to generate ICso values.

| Structure (SMILES) | pIC50 [1] | pIC50 (human CD73) |
| --- | --- | --- |
| Cc1noc(C)c1-c1ccnc(O[C@@H]2CCN(c3cn[nH]c(=O)c3C(F)(F)F)C2)c1 [P-0051, (R)-5-(3-((4-(3,5-dimethylisoxazol-4-yl)pyridin-2-yl)oxy)pyrrolidin-1-yl)-4-(trifluoromethyl)pyridazin-3(2H)-one] | 5.00 to 9.00 | 5.00 to 9.00 |
| Cc1nn(CC2CC(C#N)C2)c(C)c1-c1cc(O[C@@H]2CCN(c3cn[nH]c(=O)c3Cl)C2)ncn1 (stereo partly drawn) [P-0052, (R)-3-((4-(6-((1-(5-chloro-6-oxo-1,6-dihydropyridazin-4-yl)pyrrolidin-3-yl)oxy)pyrimidin-4-yl)-3,5-dimethyl-1H-pyrazol-1-yl)methyl)cyclobutane-1-carbonitrile] | 5.00 to 9.00 | 4.00 to 5.00 |
| CCC1(Cn2nc(C)c(-c3ccnc(O[C@@H]4CCN(c5cn[nH]c(=O)c5Cl)C4)c3)c2C)COC1 [P-0054, (R)-4-chloro-5-(3-((4-(1-((3-ethyloxetan-3-yl)methyl)-3,5-dimethyl-1H-pyrazol-4-yl)pyridin-2-yl)oxy)pyrrolidin-1-yl)pyridazin-3(2H)-one] | 5.00 to 9.00 | 5.00 to 9.00 |
| COC(=O)C1CC(Cn2nc(C)c(-c3ccnc(O[C@@H]4CCN(c5cn[nH]c(=O)c5Cl)C4)c3)c2C)C1 (stereo partly drawn) [P-0055, methyl (R)-3-((4-(2-((1-(5-chloro-6-oxo-1,6-dihydropyridazin-4-yl)pyrrolidin-3-yl)oxy)pyridin-4-yl)-3,5-dimethyl-1H-pyrazol-1-yl)methyl)cyclobutane-1-carboxylate] | 5.00 to 9.00 | 5.00 to 9.00 |
| Cc1nn(CC2CC(C(N)=O)C2)c(C)c1-c1ccnc(O[C@@H]2CCN(c3cn[nH]c(=O)c3Cl)C2)c1 (stereo partly drawn) [P-0056, (R)-3-((4-(2-((1-(5-chloro-6-oxo-1,6-dihydropyridazin-4-yl)pyrrolidin-3-yl)oxy)pyridin-4-yl)-3,5-dimethyl-1H-pyrazol-1-yl)methyl)cyclobutane-1-carboxamide] | 5.00 to 9.00 | 5.00 to 9.00 |
| Cc1nn(CC2CC(C#N)C2)c(C)c1-c1ccnc(O[C@@H]2CCN(c3cn[nH]c(=O)c3Cl)C2)c1 (stereo partly drawn) [P-0057, (R)-3-((4-(2-((1-(5-chloro-6-oxo-1,6-dihydropyridazin-4-yl)pyrrolidin-3-yl)oxy)pyridin-4-yl)-3,5-dimethyl-1H-pyrazol-1-yl)methyl)cyclobutane-1-carbonitrile] | 5.00 to 9.00 | 5.00 to 9.00 |
| O=C(C1CC1)N1CCC(c2ccnc(O[C@@H]3CCN(c4cn[nH]c(=O)c4Cl)C3)c2)CC1 [P-0058, (R)-4-chloro-5-(3-((4-(1-(cyclopropanecarbonyl)piperidin-4-yl)pyridin-2-yl)oxy)pyrrolidin-1-yl)pyridazin-3(2H)-one] | 5.00 to 9.00 | 5.00 to 9.00 |
| NC1CCC(c2ccnc(O[C@@H]3CCN(c4cn[nH]c(=O)c4Cl)C3)c2)CC1 (stereo partly drawn) [P-0059, (R)-5-(3-((4-(4-aminocyclohexyl)pyridin-2-yl)oxy)pyrrolidin-1-yl)-4-chloropyridazin-3(2H)-one] | 5.00 to 9.00 | 5.00 to 9.00 |
| CC(=O)C1CCC(c2ccnc(O[C@@H]3CCN(c4cn[nH]c(=O)c4Cl)C3)c2)CC1 (stereo partly drawn) [P-0060, (R)-5-(3-((4-(4-acetylcyclohexyl)pyridin-2-yl)oxy)pyrrolidin-1-yl)-4-chloropyridazin-3(2H)-one] | 5.00 to 9.00 | 5.00 to 9.00 |
| Cc1nn(CC2COC2)c(C)c1-c1cc(O[C@@H]2CCN(c3cn[nH]c(=O)c3Cl)C2)ncn1 [P-0061, (R)-4-chloro-5-(3-((6-(3,5-dimethyl-1-(oxetan-3-ylmethyl)-1H-pyrazol-4-yl)pyrimidin-4-yl)oxy)pyrrolidin-1-yl)pyridazin-3(2H)-one] | 5.00 to 9.00 | 5.00 to 9.00 |
| CCn1nc(C)c(-c2ccnc(O[C@@H]3CCN(c4cnn(CCO)c(=O)c4Cl)C3)c2)c1C [P-0062, (R)-4-chloro-5-(3-((4-(1-ethyl-3,5-dimethyl-1H-pyrazol-4-yl)pyridin-2-yl)oxy)pyrrolidin-1-yl)-2-(2-hydroxyethyl)pyridazin-3(2H)-one] | 5.00 to 9.00 | 5.00 to 9.00 |

Now from value to compound:

| pIC50 [1] | pIC50 (human CD73) | Structure (SMILES) |
| --- | --- | --- |
| 5.00 to 9.00 | 5.00 to 9.00 | Cc1nn(CC2CCCO2)c(C)c1-c1ccnc(O[C@@H]2CCN(c3cn[nH]c(=O)c3Cl)C2)c1 (stereo partly drawn) [P-0042, 4-chloro-5-((3R)-3-((4-(3,5-dimethyl-1-((tetrahydrofuran-2-yl)methyl)-1H-pyrazol-4-yl)pyridin-2-yl)oxy)pyrrolidin-1-yl)pyridazin-3(2H)-one] |
| 5.00 to 9.00 | 5.00 to 9.00 | Cc1nn(CC2CCCOC2)c(C)c1-c1ccnc(O[C@@H]2CCN(c3cn[nH]c(=O)c3Cl)C2)c1 (stereo partly drawn) [P-0043, 4-chloro-5-((3R)-3-((4-(3,5-dimethyl-1-((tetrahydro-2H-pyran-3-yl)methyl)-1H-pyrazol-4-yl)pyridin-2-yl)oxy)pyrrolidin-1-yl)pyridazin-3(2H)-one] |
| 5.00 to 9.00 | 5.00 to 9.00 | Cc1nn(CCC#N)c(C)c1-c1ccnc(O[C@@H]2CCN(c3cn[nH]c(=O)c3Cl)C2)c1 [P-0044, (R)-3-(4-(2-((1-(5-chloro-6-oxo-1,6-dihydropyridazin-4-yl)pyrrolidin-3-yl)oxy)pyridin-4-yl)-3,5-dimethyl-1H-pyrazol-1-yl)propanenitrile] |
| 5.00 to 9.00 | 5.00 to 9.00 | Cc1nn(CC(=O)O)c(C)c1-c1ccnc(O[C@@H]2CCN(c3cn[nH]c(=O)c3Cl)C2)c1 [P-0045, (R)-2-(4-(2-((1-(5-chloro-6-oxo-1,6-dihydropyridazin-4-yl)pyrrolidin-3-yl)oxy)pyridin-4-yl)-3,5-dimethyl-1H-pyrazol-1-yl)acetic acid] |
| 5.00 to 9.00 | 5.00 to 9.00 | N#CC1CCC(c2ccnc(O[C@@H]3CCN(c4cnn(CCO)c(=O)c4Cl)C3)c2)CC1 (stereo partly drawn) [P-0046, (R)-4-(2-((1-(5-chloro-1-(2-hydroxyethyl)-6-oxo-1,6-dihydropyridazin-4-yl)pyrrolidin-3-yl)oxy)pyridin-4-yl)cyclohexane-1-carbonitrile] |
| 5.00 to 9.00 | 5.00 to 9.00 | O=C(O)C1CCC(c2ccnc(O[C@@H]3CCN(c4cn[nH]c(=O)c4Cl)C3)c2)CC1 (stereo partly drawn) [P-0047, (R)-4-(2-((1-(5-chloro-6-oxo-1,6-dihydropyridazin-4-yl)pyrrolidin-3-yl)oxy)pyridin-4-yl)cyclohexane-1-carboxylic acid] |
| 5.00 to 9.00 | 5.00 to 9.00 | O=c1[nH]ncc(N2CC[C@@H](Oc3cc(C4CCN(CC(F)(F)F)CC4)ccn3)C2)c1Cl [P-0048, (R)-4-chloro-5-(3-((4-(1-(2,2,2-trifluoroethyl)piperidin-4-yl)pyridin-2-yl)oxy)pyrrolidin-1-yl)pyridazin-3(2H)-one] |
| 5.00 to 9.00 | 5.00 to 9.00 | N#CC1CC2CCC(C1)N2c1ccnc(O[C@@H]2CCN(c3cn[nH]c(=O)c3Cl)C2)c1 (stereo partly drawn) [P-0049, 8-(2-(((R)-1-(5-chloro-6-oxo-1,6-dihydropyridazin-4-yl)pyrrolidin-3-yl)oxy)pyridin-4-yl)-8-azabicyclo[3.2.1]octane-3-carbonitrile] |
| 5.00 to 9.00 | 5.00 to 9.00 | O=C(O)C1CC=C(c2ccnc(O[C@@H]3CCN(c4cn[nH]c(=O)c4Cl)C3)c2)CC1 (stereo partly drawn) [P-0050, 4-(2-(((R)-1-(5-chloro-6-oxo-1,6-dihydropyridazin-4-yl)pyrrolidin-3-yl)oxy)pyridin-4-yl)cyclohex-3-ene-1-carboxylic acid] |
